# Laboratory results from PubChem BioAssay AID179 (DTP/NCI, 2004).
# The source made the active and inactive calls.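 Rule for the calls: active = compounds giving half or more protection of infected cells from virus-caused growth loss, again on retest; inactive = the rest.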 Where a SMILES comes first, the peptide text is derived from it. The star is where a group is joined. Cbz = O=C(OCc1ccccc1)*
# System: CEM cells HIV-1 protection, formazan growth assay
# Assay: NCI AIDS Antiviral Assay
# Conditions: for IC50: measured here: growth of uninfected CEM cells
# Outline: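 Screen of anti-HIV-1 activity in human CEM cells using a formazan-based growth measurement at five drug concentrations. Hits with 50% or greater protection were repeated, and confirmation required reproducible complete protection.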
Structure (SMILES),EC50 [µM],IC50 [µM],outcome
CCOC(=O)CNC(=O)C(C)NC(=O)C(NC(=O)OCc1ccccc1)C(C)C (stereo not drawn) (Cbz-Val-Ala-Gly-OEt; configuration not given here),> 200,115,–
CCc1cc2c(cc1CCCC(=O)O)CC1(Cc3ccc(C(=O)O)cc3C1)C2 (configuration not stated),> 200,155,–
Cc1ccc(S(=O)(=O)n2ccn3c(=O)cc(C)nc23)cc1,> 200,> 200,–
O=c1c(O)c(-c2ccc(O)c(O)c2)oc2cc(O)cc(O)c12,–,–,inactive
Cc1cc(C)nc(NC(=S)Nc2ccccc2Cl)c1,> 200,> 200,–
CC(CO)C1=C(c2c[nH]c3ccccc23)C2C(C)C[C@H](O)C3(C)C(C)CCC(O)C23CC1 (some centres not stated),–,–,inactive
O=C1NC2c3c(I)sc(I)c3C(=O)C2O1 (configuration not stated),0.603,1.12,–
O=C(CS)NCCNC(=O)CS,> 25.1,> 25.1,–
COC1=C(C)C(=O)C(=O)c2ccccc21,–,–,inactive
CCc1nnc2n1N=C(c1ccc(-c3ccccc3)cc1)CS2,> 200,11.5,–
O=C(O)C1(Cc2ccccc2)Cc2ccccc2C1,> 200,> 200,–
CC1=CC(=O)c2c(O)cccc2C1=O,> 2,0.912,–
CN1CC[C@]2(C)c3c(O)cccc3CC3CCCC1C32C (some centres not stated),–,–,inactive
CC1CC[C@]2(C(=O)O)CCC3(C)C(=C2[C@H]1C)C=CC1[C@@]2(C)CC[C@H](O)C(C)(C)C2CC[C@]13C (some centres not stated),> 100,> 100,–
CC(=O)ONc1nn2cc(-c3ccccc3)nc2s1,> 200,> 200,–
Cc1cn([C@H]2CC3C(CON3C)O2)c(=O)[nH]c1=O (some centres not stated),> 200,> 200,–
CC(NC(=O)OCc1ccccc1)C(=O)NC(C(=O)O)C(C)C (configuration not stated),> 776,> 776,–
CCCCCCCC(=O)OCC1OC(OC)C(NC(=O)N(CCCl)N=O)C(O)C1O (configuration not stated),> 79.4,8.51,–
COc1cccc(C2Nc3ccccc3C(=O)N2N2CCOCC2)c1 (configuration not stated),> 200,> 200,–
O=C(Nc1ccc([N+](=O)[O-])cc1)OCC(COc1ccccc1)OC(=O)Nc1ccc([N+](=O)[O-])cc1 (configuration not stated),> 200,7.76,–
COC(=O)c1noc2c1CSC1=C2CS(=O)(=O)c2ccccc21,> 200,> 200,–
O=C(c1cc(Cl)ccc1Cl)N1CCN(C(=O)c2cc(Cl)ccc2Cl)CC1,> 200,> 200,–

Structure (SMILES),EC50 [µM],IC50 [µM],outcome
CCCCCCCCCCCCSC(=S)c1c(C)[nH]n(-c2ccccc2)c1=O,> 42.7,15.8,–
Cc1cc(C)c([O-])c(-[n+]2c(-c3ccccc3)cc(-c3ccccc3)cc2-c2ccccc2)c1,> 17,2.88,–
CCc1cc(-c2nsc(=O)o2)c(S(=O)(=O)CC)s1,> 200,93.3,–
COc1ccc(-c2c3c([nH]c(=S)c2C#N)CC(C)(C)CC3=O)cc1,–,–,inactive
COc1c(O)c2c3c(cc(C)cc3c1C(C)C)OC2,> 28.2,> 28.2,–
O=[N+]([O-])c1cccc(-c2ncnc(-c3cccc([N+](=O)[O-])c3)n2)c1,> 100,> 100,–
COc1ccc(/C=C2\SC(=S)N(/C=C3\C(=O)N(c4ccccc4)N=C3C)C2=O)cc1OC,> 200,28.2,–
CCOC(=O)C(Cc1ccc2c(c1)CCC2)(Cc1ccc2c(c1)CCC2)C(=O)OCC,> 200,69.2,–
NNC(=O)CSc1nc2ccccc2c(=O)n1N,> 200,> 200,–
O=[N+]([O-])/C(C(Cl)=C(Cl)Cl)=C(/Sc1ccccc1)N1CCOCC1,> 200,2.63,–
O=C1CCC2(c3ccccc3)Nc3cc(Cl)ccc3N12 (configuration not stated),–,–,inactive
C=C1CN=C(Nc2ccc(Cl)cc2)S1,> 200,75.9,–
O=C1/C(=C/c2ccc(O)cc2)CCc2ccc([N+](=O)[O-])cc21,> 200,81.3,–
O=C1c2cccc3cccc(c23)C(=O)N1c1ncn[nH]1,> 100,> 100,–
COc1cc2oc(-c3ccc(O)cc3)cc(=O)c2c(OC)c1O,> 200,> 200,–
Cc1cccc(C)c1NC(=O)CCC(=O)NNC(=O)c1cc(O)c2ccccc2c1,> 234,33.9,–
NC(=O)/N=N/C(N)=O,105,372,–
COc1nc(N)nc2c1CSc1ccccc1-2,> 77.6,> 77.6,–
COc1ccc2[nH]c(C(=O)N3CC(CCl)c4c3cc(N)c3ccccc43)cc2c1 (configuration not stated),> 0.2,0.00158,–
COC(=O)C1Cc2c([nH]c3ccccc23)C=N1 (configuration not stated),–,–,inactive
CC1C(c2ccccc2)=CCON1c1ccccc1 (configuration not stated),> 75.9,> 75.9,–
COc1cc(C(=O)C/C(CCC(=O)Nc2ccc(Cl)cc2C)=N/NC(=O)C(N)=O)ccc1O,–,–,inactive

Structure (SMILES),EC50 [µM],IC50 [µM],outcome
COc1cc2c(c(OC)c1OC)C(=O)[C@@H](O)[C@H]2N,> 200,> 100,–
Cc1ccc2c(c1)C(=O)/C(=C1/CCc3ccc(C)cc31)C2,> 200,> 200,–
CCCCCCCCCCCC(O)S(=O)(=O)O (configuration not stated),> 200,102,–
CCCC(O)(CCC)C1=NCCN1,> 200,> 200,–
Cc1ccc(C2(C)NC(=S)N(NC(N)=S)C2=S)cc1 (configuration not stated),> 32.4,> 32.4,–
CCOC(=O)C(=Cc1cc(OC)ccc1OC)C(=O)OCC,> 117,18.2,–
c1cnc2c(c1)CCc1cc3cccnc3nc1-2,> 200,186,–
Cc1ccc(/C=C2\CN(C)CC3=C2OC(N)=C(C#N)C3c2ccc(C)cc2)cc1 (configuration not stated),> 200,10.2,–
O=C(Nc1cc(Cl)ccc1Cl)C(=O)C(c1cnc2ccccc2n1)[N+](=O)[O-] (configuration not stated),> 89.1,38.9,–
CCC(=O)[O][Bi]([c]1ccccc1)[c]1ccccc1,> 30.9,5.89,–
Cc1ccc2nc(-c3ccc(N=NNc4ccc(-c5nc6ccc(C)c(S(=O)(=O)O)c6s5)cc4)cc3)sc2c1S(=O)(=O)O,174,> 200,–
CN(C)c1nc(N(C)C)n2c(-c3ccccc3[N+](=O)[O-])nnc2n1,> 60.3,41.7,–
CC1=C(O)C(=O)C2C(=O)C1C(C)C2c1ccc(Cl)cc1 (configuration not stated),> 123,> 123,–
CCCCNC(=O)c1cc(NC(=O)c2ccc(C(=O)Nc3cc(C(=O)NCCCC)cc(C4N=CCN4)c3)cc2)cc(C2=NCCN2)c1 (configuration not stated),13.2,> 100,–
CCCC(=O)Oc1ccc2c(C)cc(=O)oc2c1OC(=O)CCC,> 200,77.6,–
O=C1C2=C(c3ccccc31)C(c1ccc(F)cc1)N1C(=O)CCSC1=N2 (configuration not stated),> 37.2,> 37.2,–
c1ccc(N2CCN(CCCN3CCc4c([nH]c5ccccc45)C3c3cccnc3)CC2)cc1 (configuration not stated),> 2.19,> 2.19,–
FC(F)(F)c1ccc(C=NC23CC4CC(CC(C4)C2)C3)cc1,> 61.7,> 61.7,–
CCOC(=O)C(=O)Nc1ccc(C)c(C)c1,> 427,> 427,–
Oc1ccc2ccccc2c1OCc1nnc(CCCCCCCCc2nnc(COc3c(O)ccc4ccccc34)o2)o1,> 200,47.9,–
COc1ccc(C2C(C#N)=C(S)N(C3OC(COC(C)=O)C(OC(C)=O)C(OC(C)=O)C3OC(C)=O)C(C)=C2C(C)=O)cc1 (configuration not stated),> 200,53.7,–
